This is an account of results in article PMC9298201, “4‐Sulfamoylphenylalkylamides as Inhibitors of Carbonic Anhydrases Expressed in Vibrio cholerae” (Chemmedchem, 2021).

Where “and” joins values, the source holds several entries; their conditions need not be identical. Equal values may be shown once. Read-outs that look alike come from different tables or passages of the source.

One data set has as its target VchCAα (Vibrio cholerae, UniProt Q9KMP6). Kind of data set: stopped-flow CO2 hydrase assay, VchCAα. The class given is biochemical.
The next data set concerns the target VchCAβ (Vibrio cholerae, UniProt A0A086SLX8). Kind of data set: biochemical.
Another data set addresses VchCAγ (Vibrio cholerae, UniProt Q9KVT1). Description: stopped-flow CO2 hydrase assay, VchCAγ. It counts as biochemical.
The target of the next data set is T1, hCA I (Homo sapiens, UniProt P00915).
T1 construct: made in house
T1 sequence (P00915 whole entry): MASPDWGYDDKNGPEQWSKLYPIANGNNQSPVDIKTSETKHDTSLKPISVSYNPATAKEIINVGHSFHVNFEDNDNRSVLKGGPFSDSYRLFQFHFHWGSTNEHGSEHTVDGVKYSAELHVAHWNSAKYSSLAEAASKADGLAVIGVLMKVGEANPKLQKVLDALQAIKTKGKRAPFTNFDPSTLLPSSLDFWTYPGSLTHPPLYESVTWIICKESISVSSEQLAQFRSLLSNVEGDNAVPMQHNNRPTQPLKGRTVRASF
Description: stopped-flow CO2 hydrase assay, hCA I. The class given is biochemical. How it is done:
(§1) The uncatalyzed rates were determined in the same manner and subtracted from the total observed rates.

In another data set the target is T2, hCA II (Homo sapiens, UniProt P00918).
T2 construct: made in house
Description: stopped-flow CO2 hydrase assay, hCA II. It counts as biochemical. The settings on record: errors ±10 %, three assays. How it is done:
as §1

In the next data set the test system is Vibrio cholerae. The arrangement: method as in PMID 26235676, PMID 27283786, PMID 23488877. The settings on record: thus reducing the growth rates of pathogen; cited from earlier work.

Chain of VchCAβ (A0A086SLX8 entry or part of it): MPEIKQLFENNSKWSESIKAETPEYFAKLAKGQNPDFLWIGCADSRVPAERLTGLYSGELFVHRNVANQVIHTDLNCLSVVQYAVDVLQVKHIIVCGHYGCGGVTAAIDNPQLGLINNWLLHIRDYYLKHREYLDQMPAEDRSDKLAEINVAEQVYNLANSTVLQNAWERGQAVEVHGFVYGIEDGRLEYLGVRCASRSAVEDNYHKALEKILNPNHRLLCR
Chain of VchCAγ (Q9KVT1 1-184): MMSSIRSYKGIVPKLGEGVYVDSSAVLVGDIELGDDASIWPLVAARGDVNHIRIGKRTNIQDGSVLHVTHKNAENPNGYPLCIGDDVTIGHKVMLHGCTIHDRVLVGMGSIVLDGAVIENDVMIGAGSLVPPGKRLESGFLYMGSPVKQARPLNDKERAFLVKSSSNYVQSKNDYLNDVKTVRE
Chain of VchCAα (Q9KMP6 entry or part of it): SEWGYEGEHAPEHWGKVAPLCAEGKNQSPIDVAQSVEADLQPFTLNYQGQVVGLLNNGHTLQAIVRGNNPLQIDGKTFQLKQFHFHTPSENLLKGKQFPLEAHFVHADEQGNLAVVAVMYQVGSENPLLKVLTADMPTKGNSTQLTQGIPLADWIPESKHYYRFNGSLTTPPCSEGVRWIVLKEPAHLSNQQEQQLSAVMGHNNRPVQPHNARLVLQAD

Usually Ki stands for a dissociation constant, usually derived from enzyme kinetics or from competition with a known ligand. For orientation: melting point means the temperature, or range, at which the solid turns liquid. Compound `NS(=O)(=O)c1ccc(CNC(=O)CNC(=O)c2cccs2)cc1` [compound 42, N‐(2‐Oxo‐2‐((4‐sulfamoylbenzyl)amino)ethyl)thiophene‐2‐carboxamide] yielded a melting point of 220 to 222 °C. The compound further had a Ki at VchCAα of 9.3 nM. Affinity on VchCAβ was put at a Ki of 627 nM. Further, the affinity at VchCAγ, expressed as Ki, was 244 nM. On hCA I, this compound had a Ki of 828 nM. Besides, the inhibition constant (Ki) on hCA II is 87.3 nM.

For `NCC(=O)Nc1ccc(S(N)(=O)=O)cc1` [compound 10, 2‐amino‐N‐(4‐sulfamoylphenyl)acetamide], the Ki on VchCAα amounted to 8 nM; on VchCAβ, 3170 nM; at VchCAγ (stopped-flow CO2 hydrase assay, errors ±10 %, three assays, read-out: Ki VchCA γ), 744 nM.

In the case of `C[C@H](NC(=O)c1ccccc1)C(=O)NCc1ccc(S(N)(=O)=O)cc1` [compound 37, (S)‐N‐(1‐Oxo‐1‐((4‐sulfamoylbenzyl)amino)propan‐2‐yl)benzamide], the melting point lay in the range of 178 to 180 °C. The Ki at VchCAα amounted to 56.5 nM. Besides, the affinity on VchCAβ, expressed as Ki, was 93.3 nM. The Ki on VchCAγ was 261 nM. Further, the inhibition constant Ki at hCA I was 722 nM. The inhibitory constant (Ki) at hCA II worked out at 302 nM.

For `CC(C)[C@H](NC(=O)c1ccco1)C(=O)NCc1ccc(S(N)(=O)=O)cc1` [compound 41, (S)‐N‐(3‐Methyl‐1‐oxo‐1‐((4‐sulfamoylbenzyl)amino)butan‐2‐yl)furan‐2‐carboxamide], the melting point lay within 226 to 228 °C. This compound gave a Ki on VchCAα of 97.8 nM. Moreover, on VchCAβ, affinity was put at a Ki of 707 nM. The compound also came in with an inhibition constant (Ki) at VchCAγ of 95.3 nM. This compound also gave an inhibitory constant (Ki) at hCA I of 215 nM. The compound also displayed an inhibition constant (Ki) on hCA II of 19.6 nM.

In the case of `CC(C)[C@H](NC(=O)c1ccccc1)C(=O)NCc1ccc(S(N)(=O)=O)cc1` [compound 38, (S)‐N‐(3‐Methyl‐1‐oxo‐1‐((4‐sulfamoylbenzyl)amino)butan‐2‐yl)benzamide], the melting point fell in the range of 213 to 215 °C. At VchCAα, this compound returned an inhibition constant Ki of 37.6 nM. Further, the affinity on VchCAβ, expressed as Ki, was 94.6 nM. On VchCAγ, this compound registered an inhibitory constant (Ki) of 332 nM. The same compound returned a Ki on hCA I of 505 nM. Besides, on hCA II, the inhibition constant (Ki) was 170 nM.

Take `CC(C)[C@H](NC(=O)c1cccs1)C(=O)NCc1ccc(S(N)(=O)=O)cc1` [compound 44, (S)‐N‐(3‐Methyl‐1‐oxo‐1‐((4‐sulfamoylbenzyl)amino)butan‐2‐yl)thiophene‐2‐carboxamide]: the melting point lay within 144 to 146 °C. At VchCAα, the inhibition constant Ki worked out at 30.5 nM. The compound also displayed a Ki on VchCAβ of 94.4 nM. Also, at VchCAγ, the affinity, expressed as Ki, was 84.8 nM. This compound also yielded a Ki at hCA I of 94.9 nM. Further, the Ki on hCA II was 18.4 nM.

In the case of `NS(=O)(=O)c1ccc(NC(=O)CNC(=O)c2ccccc2)cc1` [compound 13, (S)‐N‐(2‐Oxo‐2‐((4‐sulfamoylphenyl)amino)ethyl)benzamide], the melting point lay within 214 to 216 °C. The Ki on VchCAα was determined as 0.4 nM. The same compound had an inhibitory constant (Ki) at VchCAβ of 884 nM. At VchCAγ, the inhibitory constant (Ki) amounted to 563 nM. This compound registered an inhibitory constant (Ki) on hCA I of 524 nM. On hCA II, this compound displayed an inhibition constant (Ki) of 19.9 nM.

In the case of `C[C@H](NC(=O)c1cccs1)C(=O)NCc1ccc(S(N)(=O)=O)cc1` [compound 43, (S)‐N‐(1‐Oxo‐1‐((4‐sulfamoylbenzyl)amino)propan‐2‐yl)thiophene‐2‐carboxamide], the melting point fell in the range of 221 to 223 °C. At VchCAα, the Ki worked out at 63.1 nM. This compound also gave an inhibition constant Ki on VchCAβ of 691 nM. Also, the inhibition constant Ki at VchCAγ turned out to be 93.2 nM. Also, at hCA I, the Ki was 651 nM. Besides, the Ki at hCA II was 71.1 nM.

With `CCOc1ccc2nc(S(N)(=O)=O)sc2c1` [EZA, ethoxzolamide], the “effect on bicarbonate mediated virulence gene induction” value in the data set with Vibrio cholerae is “suppressed bicarbonate mediated virulence gene induction”.

On to `C[C@H](NC(=O)c1ccccc1)C(=O)Nc1ccc(S(N)(=O)=O)cc1` [compound 14, (S)‐N‐(1‐oxo‐1‐((4‐sulfamoylphenyl)amino)propan‐2‐yl)benzamide], for which the melting point is 260 to 261 °C. Moreover, the Ki on VchCAα was 9.5 nM. In addition, the Ki at VchCAβ amounted to 3000 nM. Further, on VchCAγ, affinity was put at a Ki of 80.5 nM. The Ki at hCA I was determined as 46.1 nM. The compound also showed an inhibition constant Ki on hCA II of 4.4 nM.

Take `C[C@H](NC(=O)c1ccco1)C(=O)NCc1ccc(S(N)(=O)=O)cc1` [compound 40, (S)‐N‐(1‐Oxo‐1‐((4‐sulfamoylbenzyl)amino)propan‐2‐yl)furan‐2‐carboxamide]: the inhibition constant Ki was 8.5 nM on VchCAα; 612 nM at VchCAβ; 92.8 nM at VchCAγ; 6280 nM on hCA I; 6100 nM and 6090 nM at hCA II. Moreover, the “fold more active against VchCAα over hCA I” value on VchCAα (selectivity VchCAα vs hCA I) is given as around 730 fold. On VchCAγ (selectivity VchCAγ vs hCA I), the “fold more selective (VchCAγ) over hCA I” value was around 70 fold. On VchCAγ (selectivity VchCAγ vs hCA II), the “fold more selective (VchCAγ) over hCA II” value is reported as around 70 fold.

As for `NS(=O)(=O)c1ccc(CNC(=O)CNC(=O)c2ccco2)cc1` [compound 39, N‐(2‐Oxo‐2‐((4‐sulfamoylbenzyl)amino)ethyl)furan‐2‐carboxamide], the Ki worked out at 35.7 nM on VchCAα; 394 nM on VchCAβ; 734 nM at VchCAγ; 1440 nM at hCA I; 316 nM at hCA II.

Turning to `CC(C)[C@H](N)C(=O)Nc1ccc(S(N)(=O)=O)cc1` [compound 12, (S)‐2‐amino‐3‐methyl‐N‐(4‐sulfamoylphenyl)butanamide], the Ki on VchCAα is 659 nM; at VchCAβ, 362 nM; on VchCAγ, 88.6 nM; at hCA I it was 609 nM; at hCA II it was 183 nM.

Compound `NS(=O)(=O)c1ccc(NC(=O)CNC(=O)c2ccccc2Cl)cc1` [compound 20, 2‐Chloro‐N‐(2‐oxo‐2‐((4‐sulfamoylphenyl)amino)ethyl)benzamide] registered a melting point of 249 to 251 °C. The same compound returned a Ki on VchCAα of 8.9 nM. Moreover, the inhibition constant (Ki) on VchCAβ amounted to 796 nM. Besides, the inhibition constant Ki at VchCAγ came out at 8930 nM. Further, the inhibition constant (Ki) on hCA I was 564 nM. The compound also displayed a Ki on hCA II of 29.6 nM.

With `C[C@H](N)C(=O)Nc1ccc(S(N)(=O)=O)cc1` [compound 11, (S)‐2‐Amino‐N‐(4‐sulfamoylphenyl)propanamide], the melting point was in the range of 216 to 217 °C. Further, at VchCAα, the inhibition constant Ki is 35.7 nM. Moreover, the affinity on VchCAβ corresponds to a Ki of 381 nM. In addition, at VchCAγ, affinity was put at a Ki of 23.7 nM. This compound had an inhibition constant (Ki) on hCA I of 869 nM. In addition, at hCA II, the affinity, expressed as Ki, was 383 nM.

`CC(C)[C@H](NC(=O)c1ccccc1)C(=O)Nc1ccc(S(N)(=O)=O)cc1` [compound 15, (S)‐N‐(3‐methyl‐1‐oxo‐1‐((4‐sulfamoylphenyl)amino)butan‐2‐yl)benzamide] came in with a melting point of 279 to 280 °C. In addition, at VchCAα, the Ki was 9.2 nM. Also, the Ki on VchCAβ amounted to 389 nM. Besides, the Ki on VchCAγ is 24.3 nM. In addition, on hCA I, the affinity, expressed as Ki, was 51.5 nM. Further, the affinity at hCA II, expressed as Ki, was 3.7 nM.

`NS(=O)(=O)c1ccc(NC(=O)CNC(=O)c2cccc(Cl)c2)cc1` [compound 21, 3‐Chloro‐N‐(2‐oxo‐2‐((4‐sulfamoylphenyl)amino)ethyl)benzamide] had a melting point of 262 to 264 °C. Besides, the affinity on VchCAα, expressed as Ki, was 18.5 nM. Moreover, the inhibitory constant (Ki) on VchCAβ stood at 82.8 nM. On VchCAγ, the Ki was 364 nM. The compound further gave a Ki at hCA I of 127 nM. Besides, the inhibitory constant (Ki) at hCA II is 14.7 nM.

The compound `NS(=O)(=O)c1ccc(CNC(=O)CNC(=O)c2ccccc2)cc1` [compound 36, N‐(2‐Oxo‐2‐((4‐sulfamoylbenzyl)amino)ethyl)benzamide] yielded a melting point of 211 to 213 °C. The compound also gave an inhibition constant Ki at VchCAα of 8.2 nM. The compound further returned an inhibitory constant (Ki) on VchCAβ of 82.8 nM. Also, the affinity on VchCAγ, expressed as Ki, was 230 nM. On hCA I, affinity was put at a Ki of 754 nM. The affinity at hCA II corresponds to a Ki of 368 nM.

For `NS(=O)(=O)c1ccc(NC(=O)CNC(=O)c2ccc(Cl)cc2)cc1` [compound 22, 4‐Chloro‐N‐(2‐oxo‐2‐((4‐sulfamoylphenyl)amino)ethyl)benzamide], the melting point was 226 to 228 °C. This compound registered an inhibition constant (Ki) on VchCAα of 9.6 nM. At VchCAβ, this compound gave an inhibition constant Ki of 59.7 nM. The same compound registered an inhibition constant (Ki) at VchCAγ of 282 nM. The compound also came in with an inhibition constant (Ki) on hCA I of 81.3 nM. The Ki on hCA II was 3.3 nM.

Consider `NS(=O)(=O)c1ccc(NC(=O)CNC(=O)c2cccs2)cc1` [compound 32, N‐(2‐Oxo‐2‐((4‐sulfamoylphenyl)amino)ethyl)thiophene‐2‐carboxamide], for which the melting point is 265 to 267 °C. The compound also gave a Ki on VchCAα of 4.8 nM. This compound returned a Ki on VchCAβ of 636 nM. In addition, at VchCAγ, the affinity corresponds to a Ki of 6020 nM. Also, on hCA I, the Ki stood at 430 nM. The same compound came in with a Ki at hCA II of 38.5 nM.

The compound `NS(=O)(=O)c1ccc(NC(=O)CNC(=O)c2ccco2)cc1` [compound 31, N‐(2‐Oxo‐2‐((4‐sulfamoylphenyl)amino)ethyl)furan‐2‐carboxamide] showed a melting point of 238 to 240 °C. The compound also registered an inhibitory constant (Ki) at VchCAα of 6.8 nM. For the same compound, at VchCAβ, the affinity, expressed as Ki, was 460 nM. This compound also yielded a Ki on VchCAγ of 7750 nM. For the same compound, the affinity at hCA I corresponds to a Ki of 621 nM. This compound yielded a Ki at hCA II of 22.2 nM.
